From patent US7964104B2, “Active antiseptic water or active water-based fluid, and production method and apparatus for the same” (Japan Techno Co., Ltd., priority 2003, dated 2011) come the findings set out here.

The conditions of this assay: level of nitrite and sulfite ions in the water.

Regarding nitrite and sulfite ions, the “Level at which the antiseptic effect is inadequate” value was “less than 0.08 mg/L”.
